From patent publication US20250059144A1, “Tellurium-containing compounds and the use of treating bacterial infections thereof” (Kaohsiung Medical University, priority 2021, published 2025) come the findings set out here.

Where “and” joins values, the source holds several entries; their conditions need not be identical. Identical values can stand only once. Like-named read-outs stand apart in the source and are kept apart here. Where only a bound is given, the exact number is not on record here.

For data set [1], the system named is carbapenem-resistant Acinetobacter baumannii isolated from infected blood (n = 28). The experiment in a line: MICs in carbapenem-resistant isolate panel. The format is cell-based. The settings on record: A. baumannii (n = 28). The text has this: (§1) Compound (c) was therefore used for further evaluation of anti-bacterial activities to carbapenem resistant bacteria involving Escherichia coli, Klebsiella pneumoniae, Pseudomonas aeruginosa, and Acinetobacter baumannii in the following experiments.
(§2) 34 carbapenem-resistant Klebsiella pneumoniae, 34 carbapenem-resistant Escherichia coli, 29 carbapenem-resistant Pseudomonas aeruginosa isolated from infected blood, and 28 carbapenem-resistant Acinetobacter baumannii isolated from infected blood were selected to evaluate the anti-bacterial activities of compounds (c).

The subject of data set [2] is carbapenem-resistant Escherichia coli (n = 34). The experiment in a line: MICs in carbapenem-resistant isolate panel. The format is cell-based. The settings on record: E. coli (n = 34).
Source text: as §1, §2

In data set [3] the test system is carbapenem-resistant Klebsiella pneumoniae (n = 34). The experiment in a line: MICs in carbapenem-resistant isolate panel. The class given is cell-based. The settings on record: K. pneumoniae (n = 34).
Source text: as §1, §2

Data set [4] concerns carbapenem-resistant Pseudomonas aeruginosa isolated from infected blood (n = 29). The experiment in a line: MICs in carbapenem-resistant isolate panel. The class given is cell-based. The settings on record: P. aeruginosa (n = 29).
Source text: as §1, §2

Data set [5] relates to Acinetobacter baumannii strain AB03. Description: MIC in cation-adjusted Muller-Hinton broth. The format is cell-based.
Source text: as §1

Data set [6] concerns Escherichia coli CRE-415. The experiment in a line: MIC in cation-adjusted Muller-Hinton broth. The format is cell-based.
Source text: as §1

Data set [7] relates to Klebsiella pneumoniae ATCC BAA-1705. Description: MIC in cation-adjusted Muller-Hinton broth. The format is cell-based.
Source text: as §1

Data set [8] concerns Klebsiella pneumoniae strain CRE-723. Description: MIC in cation-adjusted Muller-Hinton broth. The class given is cell-based.
Source text: as §1

Data set [9] has as its system Pseudomonas aeruginosa strain PA13. The experiment in a line: MIC in cation-adjusted Muller-Hinton broth. The class given is cell-based.
Source text: as §1

Data set [10] is described as follows: Acute toxicity test (survival, LD50). The format is in vivo. Particulars: male mice; for survival rate: one week observation. As for the experimental part:
In terms of acute toxicology, the dose-response relationship is represented in S-shaped curve. It is not easy to obtain the LD50 value directly through the experiment. Therefore, the animal survival rate of 20˜80% must be used as the benchmark, and the LD50 value is obtained by calculating the dose and survival rate of the area. Six male mice of each group were injected with 15, 20, and 25 mg/kg of compound (c) by intraperitoneal injection. After a week of behavior and physiological observations, the survival rate was recorded and applied for linear regression.

The nature of data set [11]: Histopathological lesion evaluation and severity score of surviving mice. The format is in vivo. As for the experimental part:
In the experiment, 2 mice in the 20 and 25 mg/kg groups were randomly selected for euthanasia, the tissues involving heart, liver, spleen, lung, kidney, stomach, small intestine, large intestine, pancreatic were sliced and stained and were used for histopathological lesion evaluation and severity score by a professional pathology veterinarian (Disease Animal Special Certificate No. 0040).
Extremely light to slight monocyte infiltration in the heart was a lesion that were occasionally observed by a normal mouse might be irrelevant to experimental disposal, and a small number of monocyte infiltration cells could be observed in the portal vein area of the liver of most mice. Mild to moderate hepatocyte glycogen deposition were found in all mice, and significant swollen occurred in their liver cells, this was a common background lesions in normal mice in the case of sacrifice without sufficient fasting. It was worth noting that slight necrosis of the liver was only seen in No. 25-2. Increased mitosis in liver cell is one of the common regeneration or hyperplasia reactions for liver tissue damage. Compared with normal liver tissue, damaged liver tissue may have more mitosis cells, but it is also occasionally seen in normal mice. The mice of Nos. 20-1 and 25-2 had extremely slight to mild hepatocytes increased mitosis. It might be irrelevant to experimental disposal since the degree of increased mitosis was extremely mild to mild and was not related to the dose. Extramedullary hematopoiesis (EMH) are common lesions of mice liver tissue, it can be considered as background lesion if the degree is extremely mild. […] Besides, EMH is also common lesions occurred in spleen of mice and may exist in normal mice, the mild degree of EMH may be therefore considered as background lesions. Extremely mild to mild EMH lesions were found in spleen tissues of all mice. It could be found in the number 25-2 mouse spleen that its lymphoid follicle had multiple extremely mild apoptosis lesions, but no tissue necrosis was found. […] Chronic progressive nephropathy (CPN) involving lesions of tubule basophilia, basement membrane thickening, mononuclear inflammatory cells infiltration, glomerulosclerosis, or tubule dilatation is the most common kidney lesions in the kidney tissues of mice. The cause of CPN is unknown, it can be found in normal mice, and the incidence is increased depend on ages, male mice have a higher incidence than female mice. Therefore, it is generally not recommended to score CPN lesion separately. CPN may also occur after drug administration, it should be considered as treatment-related lesions if the severities have a significant difference in group differences. In this study, there were moderate or higher CPN lesions in each mouse kidney tissue, except for mouse of No. 25-2. However, the difference was not related to the dose and might not be related to the experimental disposal.

In data set [12] the test system is Acinetobacter baumannii strain AB03. Description: Carbapenem-resistant Acinetobacter baumannii sepsis infection model. The settings on record: 40 mg/kg/day, 3 days treatment, A. baumannii AB03 septic mice. The format is in vivo. As for the experimental part:
For establishing the carbapenem-resistant Acinetobacter baumannii sepsis infection model, 12 mice were separated in each group and were infected with the standard Acinetobacter baumannii strain AB03 with lethal dosage by intraperitoneal injection. The compound (c) was given to test groups at the dosage of 0.33, 1.67 and 3.33 mg/kg/day for 3 days treatment, respectively. The clinical standard therapy colistin methanesulfonate (CMS) (40 mg/kg/day) was selected as compared drug. 1×PBS was given as placebo group. Mice survival rate were observed four times a day and were recorded as the curve.

The mark [13] stands for this setting: AB03, read-out: MIC A. baumannii strain AB03.
Where [14] appears, read: CRE415, read-out: MIC E. coli CRE-415.
Setting [15] is: ATCCBAA1705, read-out: MIC K. pneumoniae ATCC BAA-1705.
Setting [16] is: CRE723, read-out: MIC K. pneumoniae strain CRE-723.
[17] abbreviates: PA13, read-out: MIC P. aeruginosa strain PA13.
Where [18] appears, read: 20 mg/kg, mice 20-1, 20-2, day 7.
The mark [19] stands for this setting: 25 mg/kg, mice 25-1, 25-2, day 7.

As for `Cl[TeH]1(Cl)(Cl)OCCO1` [AS101], the results for the MIC range in [1], in data set [2] and in [3] were <0.5~8 μg/mL, 0.5~32 μg/mL and <0.5~16 μg/mL, respectively. Besides, the MIC50 (commonly the lowest concentration that inhibits either 50% of growth or 50% of the strains tested, depending on the study) in data set [1] (Acinetobacter baumannii) was 2 µg/mL; in data set [2] (Escherichia coli), 4 µg/mL; in [3] (Klebsiella pneumoniae), 2 µg/mL; in data set [4], 64 µg/mL. The MIC90 – broadly, an inhibitory concentration at the 90% level, which refers to growth in some studies and to a panel of isolates in others – in [1] (Acinetobacter baumannii) is 4 µg/mL; in data set [2] (Escherichia coli), 8 µg/mL; in [3] (Klebsiella pneumoniae) it was 16 µg/mL; in data set [4] it was > 64 µg/mL.
On to `Cl[Te]1(Cl)Nc2ccccc2N1` [compound (a)], for which the minimum inhibitory concentration (MIC) (in general, the smallest concentration in the dilution series that meets the test's criterion for growth inhibition) in data set [5] (setting [13]) is 1 µg/mL; in data set [6] (setting [14]) it was 1 µg/mL; in data set [7] (setting [15]) it was 4 µg/mL; in [8] (setting [16]) it was 2 µg/mL; in data set [9] (setting [17]), 2 µg/mL.
As for `Cl[TeH]1(Cl)(Cl)[n+]2ccccc2-c2cccc[n+]21` [compound (b)], the minimal inhibitory concentration (MIC) in data set [5] (setting [13]) is 2 µg/mL; in data set [6] (setting [14]) it was 4 µg/mL; in data set [7] (setting [15]) it was 16 µg/mL; in [8] (setting [16]), 16 µg/mL; in [9] (setting [17]), 4 µg/mL.
As to `CN1CCN(C)[TeH]1(Cl)(Cl)Cl` [compound (c)], the survival rate in data set [10] (15 mg/kg intraperitoneal) is 100%. Moreover, the survival rate in [10] (20 mg/kg intraperitoneal) was 83.3%. The compound further showed a survival rate in data set [10] (25 mg/kg intraperitoneal) of 33.3%. Moreover, the LD50 (commonly the dose at which mortality reaches 50%) in [10] (intraperitoneal, linear regression of 20 and 25 mg/kg survival) is recorded as 23.3 mg/kg. Moreover, in data set [11] (setting [18]), the “Heart Mononuclear cells infiltration severity score” value was determined as 0; the “Heart Necrosis/ degeneration severity score” value stood at 0; the “Kidney Nephropathy, chronic progressive (CPN) severity score” value is 3 and 4; the “Large intestine Erosion/ ulcer severity score” value stood at 0. In addition, in data set [11] (setting [18]), the “Large intestine Mononuclear cells infiltration severity score” value came out at 0; the “Liver Extramedullary hematopoiesis, EMH severity score” value is 1 and 2; the “Liver Glycogen deposition severity score” value is 3 and 4; the “Liver Increased mitosis severity score” value stood at 0. In data set [11] (setting [18]), the “Liver Necrosis/ degeneration severity score” value is listed as 0, the “Lung Mononuclear cells infiltration severity score” value turned out to be 0, the “Lung Necrosis/ degeneration severity score” value is reported as 0 and the “Pancreas Mononuclear cells infiltration severity score” value turned out to be 0. Besides, in [11] (setting [18]), the “Pancreas Necrosis severity score” value is recorded as 0, the “Small intestine Erosion/ ulcer severity score” value is listed as 0, the “Small intestine Mononuclear cells infiltration severity score” value is on record as 0 and the “Spleen Apoptosis severity score” value was found to be 0. In addition, in [11] (setting [18]), the “Spleen Extramedullary hematopoiesis, EMH severity score” value was 2; the “Spleen Necrosis severity score” value is 0; the “Stomach Erosion/ ulcer severity score” value is given as 0; the “Stomach Mononuclear cells infiltration severity score” value stood at 0. Further, in data set [11] (setting [19]), the “Heart Necrosis/ degeneration severity score” value worked out at 0, the “Large intestine Erosion/ ulcer severity score” value stood at 0, the “Large intestine Mononuclear cells infiltration severity score” value worked out at 0 and the “Liver Increased mitosis severity score” value is 0. Also, in [11] (setting [19]), the “Liver Mononuclear cells infiltration severity score” value is reported as 1, the “Lung Mononuclear cells infiltration severity score” value was 0, the “Lung Necrosis/ degeneration severity score” value is 0 and the “Pancreas Mononuclear cells infiltration severity score” value turned out to be 0. Further, in data set [11] (setting [19]), the “Pancreas Necrosis severity score” value was 0; the “Small intestine Erosion/ ulcer severity score” value is listed as 0; the “Small intestine Mononuclear cells infiltration severity score” value was 0; the “Spleen Extramedullary hematopoiesis, EMH severity score” value is 2 and 1. In data set [11] (setting [19]), the “Spleen Necrosis severity score” value was 0, the “Stomach Erosion/ ulcer severity score” value came to 0 and the “Stomach Mononuclear cells infiltration severity score” value was determined as 0.
Turning to `[2H]C1([2H])O[TeH](Cl)(Cl)(Cl)OC1([2H])[2H]` [compound (d)], the minimum inhibitory concentration (MIC) stood at 1 µg/mL in data set [5] (AB03, CAMHB, read-out: MIC A. baumannii strain AB03); 1 µg/mL in data set [6] (CRE415, CAMHB, read-out: MIC E. coli CRE-415); 8 µg/mL in data set [7] (ATCCBAA1705, CAMHB, read-out: MIC K. pneumoniae ATCC BAA-1705); 8 µg/mL in data set [8] (CRE723, CAMHB, read-out: MIC K. pneumoniae strain CRE-723); 1 µg/mL in data set [9] (PA13, CAMHB, read-out: MIC P. aeruginosa strain PA13).
Regarding `Cl[TeH]1(Cl)(Cl)[n+]2ccccc2SSc2cccc[n+]21` [compound (e)], the minimal inhibitory concentration (MIC) in data set [5] (setting [13]) was found to be 4 µg/mL; in [6] (setting [14]), 4 µg/mL; in data set [7] (setting [15]), 16 µg/mL; in data set [8] (setting [16]) it was 32 µg/mL; in [9] (setting [17]) it was 16 µg/mL.
With `Cl[TeH]1(Cl)(Cl)[n+]2cccc3ccc4ccc[n+]1c4c32` [compound (f)], the MIC in [5] (setting [13]) amounted to 1 µg/mL; in data set [6] (setting [14]) it was 8 µg/mL; in data set [7] (setting [15]), 8 µg/mL; in [8] (setting [16]) it was 4 µg/mL; in [9] (setting [17]), 2 µg/mL.
Turning to `Cc1cc[n+]2c(c1)-c1cc(C)cc[n+]1[TeH]2(Cl)(Cl)Cl` [compound (g)], the MIC worked out at 4 µg/mL in data set [5] (setting [13]); 16 µg/mL in data set [6] (setting [14]); 16 µg/mL in data set [7] (setting [15]); 16 µg/mL in [8] (setting [16]); 4 µg/mL in data set [9] (setting [17]).
With `Cc1ccc2[n+](c1)[TeH](Cl)(Cl)(Cl)[n+]1cc(C)ccc1-2` [compound (h)], the MIC in data set [5] (setting [13]) stood at 4 µg/mL; in [6] (setting [14]), 4 µg/mL; in [7] (setting [15]), 8 µg/mL; in data set [8] (setting [16]) it was 16 µg/mL; in data set [9] (setting [17]) it was 8 µg/mL.
The compound colistin methanesulfonate [CMS] showed a survival rate in data set [12] of 16.7%.
